Source: patent publication US20260226048A1, “MULTI-CYCLIC IRAK AND FLT3 INHIBITING COMPOUNDS AND USES THEREOF” (CHILDREN'S HOSPITAL MEDICAL CENTER, priority 2023, published 2026)

Tests used:
Conditions in all cases: 11-point 3-fold dilution
[1] = biological target: T1, IRAK4 (Homo sapiens, UniProt Q9NWZ3); test: DiscoverX KINOMEscan competition binding assay, IRAK4; parameters: purchased Reaction Biology (RBC HotSpot)
T1 sequence (Q9NWZ3 1-460): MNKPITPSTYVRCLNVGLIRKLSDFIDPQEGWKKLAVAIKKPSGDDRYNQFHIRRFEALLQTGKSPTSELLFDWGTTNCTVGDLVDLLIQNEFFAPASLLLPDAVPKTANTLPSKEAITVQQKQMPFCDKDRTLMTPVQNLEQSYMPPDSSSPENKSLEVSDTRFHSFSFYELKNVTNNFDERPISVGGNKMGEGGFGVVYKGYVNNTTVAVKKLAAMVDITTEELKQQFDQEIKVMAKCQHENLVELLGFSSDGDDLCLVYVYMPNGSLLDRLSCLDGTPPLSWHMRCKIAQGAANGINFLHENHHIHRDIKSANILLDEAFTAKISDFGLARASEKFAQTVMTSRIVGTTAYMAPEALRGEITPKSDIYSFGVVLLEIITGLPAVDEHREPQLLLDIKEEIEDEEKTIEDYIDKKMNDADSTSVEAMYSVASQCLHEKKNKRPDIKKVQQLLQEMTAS
Text: (§1) […]. […] As a result, the data report thermodynamic interaction affinities (Kd values), rather than IC50 values that are dependent on ATP concentrations. The assay uses a DNA-tagged version of the protein kinase, and an immobilized ligand bound to a solid support. Compounds that directly or indirectly prevent kinase binding to the immobilized ligand reduce the amount of kinase captured on the solid support, which is detected using an ultra-sensitive qPCR method. Affinity constants reported from the assay have been reported to be independent of the immobilized ligand used that is coupled to the solid support (See supplemental information in Fabian, M. A. et. al., (2005) Nat. Biotechnol. 23, 329-336; Wodicka, L. M. et. al., (2010) Chem. Biol. 17, 1241-1249.)
(§2) Kinase-tagged T7 phage strains were prepared in an E. coli host derived from the BL21 strain. E. coli were grown to log-phase and infected with T7 phage and incubated with shaking at 32° C. until lysis. The lysates were centrifuged and filtered to remove cell debris. The remaining kinases were produced in HEK-293 cells and subsequently tagged with DNA for qPCR detection. Streptavidin-coated magnetic beads were treated with biotinylated small molecule ligands for 30 minutes at room temperature to generate affinity resins for kinase assays. The liganded beads were blocked with excess biotin and washed with blocking buffer (SeaBlock (Pierce), 1% BSA, 0.05% Tween 20, 1 mM DTT) to remove unbound ligand and to reduce non-specific binding. […] Test compounds were prepared as 111× stocks in 100% DMSO. Kds were determined using an 11-point 3-fold compound dilution series with three DMSO control points. All compounds for Kd measurements are distributed by acoustic transfer (non-contact dispensing) in 100% DMSO. The compounds were then diluted directly into the assays such that the final concentration of DMSO was 0.9%. All reactions were performed in polypropylene 384-well plates. Each was a final volume of 0.02 mL. […] The kinase concentration in the eluates was measured by qPCR.
(§3) Binding constants (Kds) were calculated with a standard dose-response curve using the Hill equation. The Hill Slope was set to −1. Curves were fitted using a non-linear least square fit with the Levenberg-Marquardt algorithm.

[2] = biological target: T2, FLT3 ITD (Homo sapiens, UniProt P36888); test: DiscoverX KINOMEscan competition binding assay, FLT3 ITD
T2 construct: fused on or other part: DNA tag for qPCR detection (kinase-tagged T7 phage, or made in HEK-293 cells and then tagged with DNA)
T2 sequence (P36888 1-993): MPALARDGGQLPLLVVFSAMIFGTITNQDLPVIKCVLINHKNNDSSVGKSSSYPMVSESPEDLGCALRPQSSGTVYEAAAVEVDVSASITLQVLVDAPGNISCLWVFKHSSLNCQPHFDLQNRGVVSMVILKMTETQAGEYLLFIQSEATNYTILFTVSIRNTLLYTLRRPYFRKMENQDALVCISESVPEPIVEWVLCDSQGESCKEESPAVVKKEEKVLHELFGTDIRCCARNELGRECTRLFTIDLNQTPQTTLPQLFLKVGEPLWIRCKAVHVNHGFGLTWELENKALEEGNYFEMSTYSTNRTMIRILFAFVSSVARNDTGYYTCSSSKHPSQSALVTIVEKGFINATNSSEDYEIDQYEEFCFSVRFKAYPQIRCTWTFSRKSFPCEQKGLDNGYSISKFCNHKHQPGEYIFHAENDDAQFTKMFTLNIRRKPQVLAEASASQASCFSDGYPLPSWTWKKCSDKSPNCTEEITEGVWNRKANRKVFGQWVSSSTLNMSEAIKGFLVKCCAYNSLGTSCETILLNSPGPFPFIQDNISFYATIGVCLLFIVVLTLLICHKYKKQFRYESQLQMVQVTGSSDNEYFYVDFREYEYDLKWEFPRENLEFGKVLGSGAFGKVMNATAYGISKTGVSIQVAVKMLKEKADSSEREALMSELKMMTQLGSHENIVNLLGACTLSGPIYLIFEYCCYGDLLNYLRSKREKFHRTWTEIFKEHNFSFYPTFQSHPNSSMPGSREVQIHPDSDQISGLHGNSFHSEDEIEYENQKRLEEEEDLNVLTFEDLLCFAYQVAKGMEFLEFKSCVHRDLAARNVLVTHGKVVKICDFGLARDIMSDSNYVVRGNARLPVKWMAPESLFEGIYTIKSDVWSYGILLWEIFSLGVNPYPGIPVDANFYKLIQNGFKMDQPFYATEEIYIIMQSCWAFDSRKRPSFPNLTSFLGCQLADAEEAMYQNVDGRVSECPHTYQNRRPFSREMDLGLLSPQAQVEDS
Text: as §1, §2, §3

[3] = biological target: T3, FLT3 Autoinh. (Homo sapiens, UniProt P36888); test: DiscoverX KINOMEscan competition binding assay, FLT3 Autoinh.
T3 construct: purchased DiscoverX (KINOMEscan); host or cells: E. coli BL21-derived host (T7 phage) or HEK-293
T3 sequence (P36888 564-993 limits assumed): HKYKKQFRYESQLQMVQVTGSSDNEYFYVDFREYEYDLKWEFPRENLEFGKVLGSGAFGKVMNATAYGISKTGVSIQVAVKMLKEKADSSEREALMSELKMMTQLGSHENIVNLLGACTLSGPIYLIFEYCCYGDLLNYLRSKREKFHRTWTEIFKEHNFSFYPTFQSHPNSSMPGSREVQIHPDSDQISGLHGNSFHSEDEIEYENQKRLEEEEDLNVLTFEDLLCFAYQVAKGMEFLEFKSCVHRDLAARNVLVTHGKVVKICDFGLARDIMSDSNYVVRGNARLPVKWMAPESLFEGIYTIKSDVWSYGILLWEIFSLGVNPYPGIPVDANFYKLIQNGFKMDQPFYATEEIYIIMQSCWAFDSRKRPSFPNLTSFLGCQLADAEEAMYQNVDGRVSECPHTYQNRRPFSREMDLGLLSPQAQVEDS
Text: as §1, §2, §3

With COc1cc2ncc(-c3nc(N[C@H]4CNCC[C@@H]4F)ncc3F)n2nc1C1CC1 [Compound 1a, 4-(6-cyclopropyl-7-methoxyimidazo[1,2-b]pyridazin-3-yl)-5-fluoro-N-((3S,4S)-4-fluoropiperidin-3-yl)pyrimidin-2-amine] the Kd [1] was < 0.17 nM, the Kd [2] was 0.21 nM and the Kd [3] was 2.2 nM.

For FC(F)COc1cc2ncc(-c3ccnc(N[C@H]4CNCC[C@@H]4F)n3)n2nc1C1CC1 [Compound 4a, 4-(6-cyclopropyl-7-(2,2-difluoroethoxy)imidazo[1,2-b]pyridazin-3-yl)-N-((3 S,4S)-4-fluoropiperidin-3-yl)pyrimidin-2-amine], the Kd [1] was 0.59 nM, the Kd [2] was 1.7 nM and the Kd [3] was 21 nM.

In the case of COc1cc2ncc(-c3nc(N[C@H]4CNCC[C@@H]4F)ncc3F)n2nc1C(C)(C)O [Compound 45a, 2-(3-(5-fluoro-2-(((3S,4S)-4-fluoropiperidin-3-yl)amino)pyrimidin-4-yl)-7-methoxyimidazo[1,2-b]pyridazin-6-yl)propan-2-ol], the Kd [1] is reported as 0.58 nM, the Kd [2] is reported as < 0.17 nM and the Kd [3] is reported as 11 nM.

For CC(C)(O)c1ccc2ncc(-c3nc(N[C@H]4CNCC[C@@H]4F)ncc3F)n2c1 [Compound 46a, 2-(3-(5-fluoro-2-(((3S,4S)-4-fluoropiperidin-3-yl)amino)pyrimidin-4-yl)imidazo[1,2-a]pyridin-6-yl)propan-2-ol], the Kd [1] was < 0.17 nM, the Kd [2] was 0.19 nM and the Kd [3] was 7.1 nM.

In the case of COc1cc2ncc(-c3nc(N[C@H]4CNCC[C@@H]4F)ncc3F)n2nc1C1COC1 [Compound 92a, 5-fluoro-N-((3S,4S)-4-fluoropiperidin-3-yl)-4-(7-methoxy-6-(oxetan-3-yl)imidazo[1,2-b]pyridazin-3-yl)pyrimidin-2-amine], the Kd [1] is reported as < 0.17 nM, the Kd [2] is reported as 0.21 nM and the Kd [3] is reported as 3.3 nM.

CC(C)(O)c1cn2c(-c3nc(N[C@H]4CNCC[C@@H]4F)ncc3F)cnc2cn1 [Compound 100a, 2-(3-(5-fluoro-2-(((3S,4S)-4-fluoropiperidin-3-yl)amino)pyrimidin-4-yl)imidazo[1,2-a]pyrazin-6-yl)propan-2-ol] showed a Kd [1] of 1.5 nM, a Kd [2] of 2.7 nM and a Kd [3] of 57 nM.

COc1cc2ncc(-c3nc(N[C@H]4CNCC[C@@H]4F)ncc3F)n2nc1N1CCCS1(=O)=O [Compound 112a, 2-(3-(5-fluoro-2-(((3S,4S)-4-fluoropiperidin-3-yl)amino)pyrimidin-4-yl)-7-methoxyimidazo[1,2-b]pyridazin-6-yl)isothiazolidine 1,1-dioxide] showed a Kd [1] of 0.61 nM, a Kd [2] of 0.2 nM and a Kd [3] of 2.7 nM.
